Where two headings read alike, the source gives them in different places.
What was measured:
colon cancer lines = experiment: GSH concentration in cancer cells (other studies, not yet published); format: cell-based; details: results not yet published
[1] = tested on: breast cancer cells (MCF-7, MDA-MB-231 and HCC38) and endometrial cancer cells (Ishikawa, Hec-1-A); experiment: MTT cytotoxicity assay, summary over the cell lines; format: cell-based, human; details: Homo sapiens; range over the five cancer lines; read-out: IC50, range depending on the cancer line
Protocol: (§1) Cell viability was determined using the metabolic microplate spectrophotometric assay with Methylthiazolyl diphenyltetrazolium bromide (MTT), i.e., 3-(4,5-Dimethyl-2-thiazolyl)-2,5-diphenyl-2H-tetrazolium bromide (Sigma-Aldrich; St. Louis, MO, USA). The anticancer activity of the investigated compounds was evaluated in vitro on the basis of their ability to inhibit the proliferation of various cancer cells. The appropriate number of cells for a given cell line (6–8 × 10^3 cells/mL) were seeded into sterile, colorless 96-well microplates. After 24 h of culture, specific wells of the microplate were treated with test compounds (10–200 µmol/L concentration) and incubated in a CO2 incubator for 24 h. The medium was then removed, the cell monolayer was washed twice with sterile PBS solution and fresh culture medium was added to the wells of the microplate.
(§2) After 48 h of cell culture, the MTT test was conducted. In each well of the microplate, 50 µL of tetrazolium salt solution (final concentration 0.05 mg/mL) was added. The microplate was then placed in a CO2 incubator for 3–4 h (depending on the cell line). Following incubation, 100 µL of DMSO (dimethyl sulfoxide, Sigma-Aldrich, St. Louis, MO, USA) was added to the microplate wells to dissolve the purple formazan crystals formed in the environment of living cells. The absorbance of the formazan solution was read at a wavelength of λ = 580 nm and a reference wavelength of λ = 720 nm after gentle mixing (Biotek Power Wave HT, Biotek Instruments, Winooski, VT, USA).
The percentage of live cells was calculated by comparing the absorbance value of the tested samples with that of the control (cells not treated with compounds). Control absorbance was arbitrarily considered to be 100%. […] Moreover, cisplatin (Sigma-Aldrich, St. Louis, MO, USA) was used as a reference compound, and identical incubation conditions were used as described above.

[2] = MTT cytotoxicity assay, model of normal cells; format: cell-based; details: human, HMEC-1 cells (model of normal cells), 24 h incubation, mean ± SEM, read-out: Cytotoxic effect, IC50
Protocol: as §1, §2
(§3) The percentage of live cells was calculated by comparing the absorbance value of the tested samples with that of the control (cells not treated with compounds). Control absorbance was arbitrarily considered to be 100%.

MCF-7 = experiment: MTT cytotoxicity assay; format: cell-based; details: Homo sapiens, MCF7, 24 h incubation, mean ± SEM, read-out: Cytotoxic effect, IC50
Protocol: as §1, §2, §3
(§4) In order to determine the contribution of ROS to the cytotoxicity of the tested compounds, the cells were pre-incubated for 1 h with the antioxidant vitamin E (Trolox, Sigma-Aldrich; St. Louis, MO, USA). Cells were seeded into sterile, colorless 96-well microplates at a concentration of 6–8 × 10^3 cells/mL, depending on the cell line. After 24 h of culture, Trolox was added at a final concentration of 50 μM/well. After 1 h of incubation, the antioxidant was washed off, then appropriate concentrations of test compounds (10–200 µmol/L concentration) were added to fresh cell culture medium and incubated for 24 h. The MTT test was then performed under identical experimental conditions, as described in Section 3.1.2.

Hec-1-A = experiment: MTT cytotoxicity assay; format: cell-based; details: Homo sapiens, 24 h incubation, mean ± SEM, read-out: Cytotoxic effect, IC50
Protocol: as §1, §2, §3, §4

HCC38 = experiment: MTT cytotoxicity assay; format: cell-based; details: Homo sapiens, 24 h incubation, mean ± SEM, read-out: Cytotoxic effect, IC50
Protocol: as §1, §2, §3, §4

MDA-MB-231 [3] = experiment: MTT cytotoxicity assay; format: cell-based; details: Homo sapiens, 24 h incubation, mean ± SEM, read-out: Cytotoxic effect, IC50
Protocol: as §1, §2, §3, §4

Ishikawa = experiment: MTT cytotoxicity assay; format: cell-based; details: Homo sapiens
Protocol: as §1, §2
The percentage of live cells was calculated by comparing the absorbance value of the tested samples with that of the control (cells not treated with compounds). Control absorbance was arbitrarily considered to be 100%. […]

MDA-MB-231 [4] = experiment: Nitric oxide (RNS) generation, DAF-FM diacetate probe; format: cell-based, human; details: IC50 concentration, 24 h
Protocol: Diaminofluorescein-FM diacetate (DAF-FM diacetate, Invitrogen, Carlsbad, CA, USA), is a widely employed cell permeant fluorescent reagent for the detection and quantification of reactive nitrogen species (RNS), particularly nitric oxide (NO). […] However, upon reaction with NO, it undergoes a transformation that yields a highly fluorescent benzotriazole derivative (excitation/emission maxima: λex = 495, λem = 515 nm).
The cells were seeded in black 96-well fluorometric microplates at a density of 10 × 10^3 cells per well. […] After incubation with the compounds, the medium was removed, the cell monolayer in the wells was washed twice with HBSS (140 mM NaCl, 5 mM KCl, 0.8 mM MgCl2, 1.8 mM CaCl2, 1 mM Na2HPO4, 10 mM HEPES and 1% glucose) and 50 μL of DAF-FM diacetate solution in HBSS was added to each well (final probe concentration 5 μmol/L). Cells were incubated with the probe for 30 min in the dark in an incubator (37 °C). After incubation, the probe was removed and replaced with fresh HBSS buffer and then incubated for an additional 30 min to allow for complete de-esterification of the intra cellular diacetates. After this time, the fluorescence was measured. The measurement was performed at the following excitation and fluorescence emission wavelengths: λex = 495 nm/λem = 515 nm. Fluorescence was measured on a Perkin-Elmer LS-5B spectrofluorometer (MA, USA). Fluorescence intensity values for control cells were arbitrarily set as 100%. The results are presented as percentages of control cells calculated on the basis of a comparison of the fluorescence intensity ratio of test samples and controls (100%) (fluorescence of samples was calculated as Δf in relation to the control).

[5] = Ishikawa vs HMEC-1, read-out: IC50 in Ishikawa lower than that for HMEC-1, difference
[6] = Ishikawa, 24 h incubation, mean ± SEM, read-out: Cytotoxic effect, IC50

| Structure (SMILES) | GSH concentration in cancer cells (in words) (colon cancer lines) | IC50 [1] | IC50 at 24 h [2] | IC50 (MCF-7) | IC50 (Hec-1-A) | IC50 (HCC38) | IC50 (MDA-MB-231 [3]) | IC50 (Ishikawa; [5]) | IC50 (Ishikawa; [6]) | increase in nitric oxide level (DAF-FM) (MDA-MB-231 [4]) |
| --- | --- | --- | --- | --- | --- | --- | --- | --- | --- | --- |
| COc1cccc(/C=C2/C(=O)c3ccccc3OC2c2ccccc2)c1 (stereo not drawn) [Compound 3] | decrease in GSH concentration | 15 to 27 µM | 24.1 ± 1.3 µM | 16.4 ± 2.3 µM | 26.9 ± 2.3 µM | 20.9 ± 1.5 µM | 15.2 ± 3.1 µM | ~10 µM | 15.2 ± 1.6 µM | approximately 15% |
| O=C1/C(=C/c2ccccc2)C(c2ccccc2)Oc2ccccc21 (stereo not drawn) [Compound 5] | decrease in GSH concentration | 18 to 36 µM | 19.7 ± 3.7 µM | 25.1 ± 4.2 µM | 35.9 ± 2.4 µM | 25.6 ± 0.9 µM | 23.3 ± 1.4 µM | ~10 µM | 18.6 ± 4.4 µM | approximately 15% |
| O=C1/C(=C/c2ccccc2)COc2ccccc21 [Compound 1] | decrease in GSH concentration | 10 to 18 µM | 21.2 ± 3.1 µM | 10.2 ± 0.9 µM | 18.5 ± 1.2 µM | 15.7 ± 0.8 µM | 12.6 ± 1.1 µM | ~10 µM | 10.2 ± 1.8 µM | approximately 20% |

From paper PMC11312998, “Molecular Pro-Apoptotic Activities of Flavanone Derivatives in Cyclodextrin Complexes: New Implications for Anticancer Therapy” (International Journal of Molecular Sciences, 2024)
